This assay has as its target T1, human beta-3-adrenergic receptor (Homo sapiens, UniProt P13945).
T1 construct: stably express full-length human beta-3-adrenergic receptor; expressed in transfected cells; host or cells: Chinese hamster ovary (CHO) cells
Put plainly: cAMP production (beta-3 agonist activity) in CHO cells stably expressing human beta-3-adrenergic receptor, cAMP SPA. The assay is classed as cell-based. Particulars: CHO cells expressing full-length human beta-3-adrenergic receptor, 30 min incubation, 10 μM to 3 nM. On the procedure:
Chinese hamster ovary (CHO) cells that stably express full-length human beta-3-adrenergic receptor (Granneman et al., Mol. Pharmacol. 44:264-270, 1993) can be used in the following procedure. The cell line is grown in 90% F12 nutrient mixture (HAM), 10% fetal bovine serum, 100 units/ml penicillin G sodium, […] streptomycin sulfate, and 2 mM L-glutamine at 37° C. in 95% air and 5% CO2. The transfected cell line is maintained with G-418 (800 μg/ml).
To test the agonist activity, cells are exposed to test compound and then assayed for cAMP production. CHO cells (100 μl) are plated at 5×10^4 cells/well of a 96-well plate (Costar, Cambridge, Mass.) to achieve 70% confluency the next day. After overnight incubation at 37° C., media is removed and the cells are treated for 30 minutes at 37° C. with KRP buffer (120 mM NaCl, 5.1 mM KCl, 0.6 mM MgSO4.7H2O, 0.8 mM CaCl2.H2O, […] phosphate buffer, […] Hepes pH 7.4)+[…] IBMX ([…]), +1% DMSO, +/− test compounds ([…]). Test compounds are assayed from 10 μM to 3 nM with 3-fold serial dilutions. The control agonist, isoproterenol (10 mM stock in 1.1 mM ascorbate), is assayed by 3-fold dilution beginning at 1 μM. After a 30-minute incubation with the test compounds, the buffer/compound mixture is removed. The cells are lysed and cAMP levels are measured using the cAMP SPA screening assay system (Amersham, Arlington Heights, Ill.). The cAMP values are then plotted to determine the EC50 of each compound tested.

Setting [1] is: read-out: Beta-3 Agonistic Activity: Compounds with EC50 values ≦1 μM.
Setting [2] is: read-out: Beta-3 Agonistic Activity: Compounds with EC50 values >1 μM.

The results in this text go back to US6660752B2, “2,6-Substituted chroman derivatives useful as beta-3 adrenoreceptor agonists” (Bayer Pharmaceuticals Corporation, priority 2001, dated 2003).

Counter-ions that a name gives are not always drawn. Like-named read-outs stand apart in the source and are kept apart here. Some results are limits rather than exact numbers.

T1 sequence (P13945 whole entry): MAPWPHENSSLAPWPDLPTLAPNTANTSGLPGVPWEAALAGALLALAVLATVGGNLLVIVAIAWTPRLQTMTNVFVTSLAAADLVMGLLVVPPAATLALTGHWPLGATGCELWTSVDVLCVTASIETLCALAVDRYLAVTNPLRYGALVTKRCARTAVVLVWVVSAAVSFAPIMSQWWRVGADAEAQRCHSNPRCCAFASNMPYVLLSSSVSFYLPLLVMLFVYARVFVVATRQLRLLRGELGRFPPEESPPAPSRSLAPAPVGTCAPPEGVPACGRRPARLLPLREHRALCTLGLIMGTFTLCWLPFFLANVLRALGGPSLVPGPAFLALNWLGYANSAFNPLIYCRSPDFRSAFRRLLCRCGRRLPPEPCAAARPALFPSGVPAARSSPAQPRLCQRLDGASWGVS

In the case of `CC1(O)C(=O)NN(c2cccc(-c3ccc4c(c3)CC[C@@H](CNC[C@H](O)c3cccnc3)O4)c2)C1=O` (stereo partly drawn) [Example 314, 4-hydroxy-1-{3-[(2S)-2-({[(2R)-2-hydroxy-2-(3-pyridinyl)ethyl]amino}methyl)-3,4-dihydro-2H-chromen-6-yl]phenyl}-4-methyl-3,5-pyrazolidinedione Dihydrochloride], under setting [1], the EC50 was at most 1000 nM. Take `COc1cccc(C(=O)NS(=O)(=O)c2ccc(-c3ccc4c(c3)CC[C@H](CNC[C@H](O)c3cccnc3)O4)cc2)c1` [Example 293, 4-[(2R)-2-({[(2R)-2-hydroxy-2-(3-pyridinyl)ethyl]amino}methyl)-3,4-dihydro-2H-chromen-6-yl]-N-(3-methoxybenzoyl)benzenesulfonamide]: the EC50 under setting [1] was at most 1000 nM. Same read-out and setting: in the case of `O=C(O)c1cccc(CCc2ccc3c(c2)CCC(CNC[C@H](O)c2cccnc2)O3)c1` (stereo in doubt) [Example 216, 3-{2-[(2S)-2-({[(2R)-2-hydroxy-2-(3-pyridinyl)ethyl]amino}methyl)-3,4-dihydro-2H-chromen-6-yl]ethyl}benzoic Acid] it was at most 1000 nM. With `Cc1ccc(-c2ccc3c(c2)CC[C@H](CNC[C@H](O)c2cccnc2)O3)cc1` [Example 45], the EC50 under setting [2] is above 1000 nM. `N#Cc1ccc(NS(=O)(=O)c2cccc(-c3ccc4c(c3)CC[C@H](CNC[C@H](O)c3cccnc3)O4)c2)cc1` [Example 257]: the concentration giving a half-maximal response (EC50) under setting [1] was at most 1000 nM. In the case of `O=S(=O)(Nc1ncccn1)c1ccc(-c2ccc3c(c2)CC[C@@H](CNCC(O)c2cccnc2)O3)cc1` (stereo partly drawn) [Example 249B, 4-[(2S)-2-({[-2-hydroxy-2-(3-pyridinyl)ethyl]amino}methyl)-3,4-dihydro-2H-chromen-6-yl]-N-(2-pyrimidinyl)benzenesulfonamide], under setting [1], the concentration giving a half-maximal response (EC50) is at most 1000 nM. As for `O[C@@H](CNC[C@H]1CCc2cc(-c3ccc(-c4ccccc4)cc3)ccc2O1)c1cccnc1` [Example 47], the EC50 under setting [1] is at most 1000 nM. In the case of `CCOC(=O)c1ccc(Oc2cc(-c3ccc4c(c3)CC[C@H](CNC[C@H](O)c3cccnc3)O4)ccc2C(=O)O)cc1` [Example 197, 2-[4-(ethoxycarbonyl)phenoxy]-4-[(2R)-2-({[(2R)-2-hydroxy-2-(3-pyridinyl)ethyl]amino}methyl)-3,4-dihydro-2H-chromen-6-yl]benzoic acid], the EC50 under setting [1] was at most 1000 nM.

As to `O=C(Nc1ccc(F)cc1)NS(=O)(=O)c1ccc(-c2ccc3c(c2)CC[C@H](CNC[C@H](O)c2cccnc2)O3)cc1` [Example 327, 3-((1R)-2-{[((2R)-6-{4-[({[(4-fluorophenyl)amino]carbonyl}amino)sulfonyl]phenyl}-3,4-dihydro-2H-chromen-2-yl)methyl]amino}-1-hydroxyethyl)pyridine], the EC50 under setting [1] was at most 1000 nM. Same read-out and setting: the same measure for `COC(=O)c1cccc(-c2ccc3c(c2)CC[C@H](CNC[C@H](O)c2ccc(N)nc2)O3)c1` [Example 382]: at most 1000 nM. Same read-out and setting: in the case of `O=C(O)c1ccc(-c2ccc3c(c2)CC[C@H](CNC[C@H](O)c2cccnc2)O3)cc1Oc1ccc(F)cc1` [Example 193, 2-(4-fluorophenoxy)-4-[(2R)-2-({[(2R)-2-hydroxy-2-(3-pyridinyl)ethyl]amino}methyl)-3,4-dihydro-2H-chromen-6-yl]benzoic acid] it was at most 1000 nM. As for `COc1ccc(-c2ccc3c(c2)CC[C@H](CNC[C@H](O)c2cccnc2)O3)cc1S(=O)(=O)Nc1nccc(C)n1` [Example 269], the EC50 under setting [1] was at most 1000 nM.

As for `Nc1ccc([C@@H](O)CNC[C@H]2CCc3cc(-c4cccc(C(=O)O)c4)ccc3O2)cn1` [Example 386, 3-[(2R)-2-({[(2R)-2-(6-amino-3-pyridinyl)-2-hydroxyethyl]amino}methyl)-3,4-dihydro-2H-chromen-6-yl]benzoic Acid], the concentration giving a half-maximal response (EC50) under setting [1] is at most 1000 nM.

As to `O[C@@H](CNC[C@H]1CCc2cc(I)ccc2O1)c1cccnc1` [Example 36, (1R)-2-({[(2R)-6-iodo-3,4-dihydro-2H-chromen-2-yl]methyl}amino)-1-(3-pyridinyl)ethanol], the concentration giving a half-maximal response (EC50) under setting [1] was at most 1000 nM. As for `COc1ccc(-c2ccc3c(c2)CC[C@H](CNC[C@H](O)c2cccnc2)O3)cc1S(=O)(=O)Nc1ncccn1` [Example 272], under setting [1], the EC50 was at most 1000 nM. With `CC(=O)c1ccc(NS(=O)(=O)c2ccc(-c3ccc4c(c3)CC[C@H](CNC[C@H](O)c3cccnc3)O4)cc2OC(F)(F)F)cc1` [Example 263], the EC50 under setting [1] is at most 1000 nM. The same measure, in the same setting: the same measure for `Cc1ccc(S(=O)(=O)CC(=O)c2ccc(-c3ccc4c(c3)CC[C@H](CNC[C@H](O)c3cccnc3)O4)cc2)cc1` [Example 309]: at most 1000 nM. For `O=S(=O)(Nc1ccc(-c2ccc3c(c2)CC[C@H](CNC[C@H](O)c2cccnc2)O3)nc1)c1ccc(Cl)cc1` [Example 320, 4-chloro-N-{6-[(2R)-2-({[(2R)-2-hydroxy-2-(3-pyridinyl)ethyl]amino}methyl)-3,4-dihydro-2H-chromen-6-yl]-3-pyridinyl}benzenesulfonamide], the EC50 under setting [1] was at most 1000 nM. On to `COc1cc(OC)nc(NS(=O)(=O)c2ccc(-c3ccc4c(c3)CC[C@H](CNC[C@H](O)c3cccnc3)O4)cc2)n1` [Example 267], for which, under setting [1], the concentration for a half-maximal effect (EC50) was at most 1000 nM. As for `CCCOc1cc(-c2ccc3c(c2)CC[C@H](CNC[C@H](O)c2cccnc2)O3)ccc1C(=O)O` [Example 186, 4-[(2R)-2-({[(2R)-2-hydroxy-2-(3-pyridinyl)ethyl]amino}methyl)-3,4-dihydro-2H-chromen-6-yl]-2-propoxybenzoic acid], the 50% effective concentration (EC50) under setting [1] was at most 1000 nM. `Cc1ccc(C(=O)NS(=O)(=O)c2cccc(-c3ccc4c(c3)CC[C@H](CNC[C@H](O)c3cccnc3)O4)c2)cc1` [Example 299]: under setting [1], the EC50 was at most 1000 nM. As to `CC(C)Cc1cc(-c2ccc3c(c2)CC[C@H](CNC[C@H](O)c2cccnc2)O3)ccc1C(=O)O` [Example 211, 4-[(2R)-2-({[(2R)-2-hydroxy-2-(3-pyridinyl)ethyl]amino}methyl)-3,4-dihydro-2H-chromen-6-yl]-2-isobutylbenzoic Acid], the 50% effective concentration (EC50) under setting [1] was at most 1000 nM. Take `O=C(CC(F)(F)F)NS(=O)(=O)c1ccc(-c2ccc3c(c2)CC[C@H](CNC[C@H](O)c2cccnc2)O3)cc1` [Example 284, 4-[(2R)-2-({[(2R)-2-hydroxy-2-(3-pyridinyl)ethyl]amino}methyl)-3,4-dihydro-2H-chromen-6-yl]-N-(3,3,3-trifluoropropanoyl)benzenesulfonamide]: the half-maximal effective concentration (EC50) under setting [1] is at most 1000 nM. As to `O=C(Nc1ccccc1F)NS(=O)(=O)c1cccc(-c2ccc3c(c2)CC[C@H](CNC[C@H](O)c2cccnc2)O3)c1` [Example 336], the EC50 under setting [1] is at most 1000 nM. As for `CCOCC(=O)NS(=O)(=O)c1ccc(-c2ccc3c(c2)CC[C@H](CNC[C@H](O)c2cccnc2)O3)cc1` [Example 286, N-(ethoxyacetyl)-4-[(2R)-2-({[(2R)-2-hydroxy-2-(3-pyridinyl)ethyl]amino}methyl)-3,4-dihydro-2H-chromen-6-yl]benzenesulfonamide], the half-maximal effective concentration (EC50) under setting [1] was at most 1000 nM. As to `CC(=O)c1ccc(NS(=O)(=O)c2ccc(-c3ccc4c(c3)CC[C@H](CNC[C@H](O)c3cccnc3)O4)cc2)cc1` [Example 264], the concentration for a half-maximal effect (EC50) under setting [1] was at most 1000 nM. Turning to `COc1cc(C)nc(NS(=O)(=O)c2ccc(-c3ccc4c(c3)CC[C@H](CNC[C@H](O)c3cccnc3)O4)cc2OC(F)(F)F)n1` [Example 275, 4-[(2R)-2-({[(2R)-2-hydroxy-2-(3-pyridinyl)ethyl]amino}methyl)-3,4-dihydro-2H-chromen-6-yl]-N-(4-methoxy-6-methyl-2-pyrimidinyl)-2-(trifluoromethoxy)benzenesulfonamide], the EC50 under setting [1] is at most 1000 nM.

For the molecule `COc1cc(C)nc(NS(=O)(=O)c2ccc(-c3ccc4c(c3)CC[C@H](CNC[C@H](O)c3cccnc3)O4)cc2)n1` [Example 273, 4-[(2R)-2-({[(2R)-2-hydroxy-2-(3-pyridinyl)ethyl]amino}methyl)-3,4-dihydro-2H-chromen-6-yl]-N-(4-methoxy-6-methyl-2-pyrimidinyl)benzenesulfonamide], the concentration giving a half-maximal response (EC50) under setting [1] is at most 1000 nM. On to `O=C(NC1CCCCC1)NS(=O)(=O)c1ccc(-c2ccc3c(c2)CC[C@H](CNC[C@H](O)c2cccnc2)O3)cc1` [Example 329, 3-{(1R)-2-[({(2R)-6-[4-({[(cyclohexylamino)carbonyl]amino}sulfonyl)phenyl]-3,4-dihydro-2H-chromen-2-yl}methyl)amino]-1-hydroxyethyl}pyridine], for which the EC50 under setting [1] was at most 1000 nM. Take `Nc1ccc([C@@H](O)CNC[C@H]2CCc3cc(C(=O)N4CCC[C@@H]4C(=O)O)ccc3O2)cn1` [Example 367]: the EC50 under setting [2] is above 1000 nM. As for `COc1cc(C)nc(NS(=O)(=O)c2cc(-c3ccc4c(c3)CC[C@H](CNC[C@H](O)c3cccnc3)O4)ccc2OC)n1` [Example 271], the concentration for a half-maximal effect (EC50) under setting [1] is at most 1000 nM.
